{"source": "patent US7585851B2", "about": "“3′-prodrugs of 2′-deoxy-β-L-nucleosides” (priority 2000, dated 2009)", "key": {"[1]": {"test_system": "HSV-2", "experiment": "Antiviral panel: HSV-2 (HFF)", "assay_type": "cell-based"}, "[2]": {"test_system": "Influenza B", "experiment": "Antiviral panel: Influenza B (MDCK)", "assay_type": "cell-based"}, "[3]": {"test_system": "RSV type A", "experiment": "Antiviral panel: RSV type A (MA-104)", "assay_type": "cell-based"}, "[4]": {"assay_type": "in vivo, rhesus monkey", "method": "The pharmacokinetics of L-dC following oral administration in the rhesus monkey was determined. […] Blood samples for pharmacokinetic analysis were collected pre-dose and at 0.25, 0.5, 1, 2, 3, 6, 8 and 24 hours after dosing. Urine samples for pharmacokinetic analyses were collected via pan catch pre-dose and over the following intervals post-dose: 0-2, 2-4, 4-8 and 8-12 hours, and then at 12-hour intervals thereafter through 336 hours post-dose. The drug was detected and concentration determined using a reverse-phase HPLC technique."}, "[5]": {"experiment": "Single dose bioavailability of dival-L-dC (IV and oral) in cynomologus monkey", "assay_type": "in vivo, cynomologus monkey (macaca fascicularis)", "excerpt": "The drug was quantitated in plasma and urine with a liquid chromatography-mass spectrometry (LC-MS) technique."}, "[6]": {"test_system": "cultured CHO cells", "experiment": "Chromosomal aberration assay", "assay_type": "cell-based, Chinese hamster", "conditions": "with and without metabolic activation, 5000 μg/mL"}, "[7]": {"test_system": "MA-104, rhesus monkey kidney epithelial cells"}, "[8]": {"test_system": "KB, human nasopharyngeal carcinoma"}, "[9]": {"test_system": "WHV", "conditions": "0.01-10 mg/kg/day orally, woodchucks"}, "[10]": {"conditions": "human"}, "[11]": {"conditions": "rat, in vivo"}, "[12]": {"test_system": "HBV", "experiment": "Anti-HBV activity in HBV-expressing 2.2.15 cells (HBV DNA reduction)", "conditions": "2.2.15 cells"}, "[13]": {"conditions": "L-dC 10 mg/kg oral, rhesus monkey"}, "[14]": {"conditions": "dival-L-dC 10 mg/kg oral, monkey"}}, "note": "Values joined by “and” are separate entries in the source; they are usually repeats but may differ in a detail not shown here. Equal values may be shown once. “Also recorded” adds a separate entry of the source. Read-outs that look alike come from different tables or passages of the source."}
{"smiles": "Nc1ccn([C@@H]2C[C@@H](O)[C@H](CO)O2)c(=O)n1", "note": "[L-dC, 2′-deoxy-β-L-cytidine]", "values": [{"measurement": "EC50", "setting": "[1]", "value": ">100", "unit": "µg/mL"}, {"measurement": "EC50", "setting": "[2]", "value": "> 100000", "unit": "nM"}, {"measurement": "EC50", "setting": "[3]", "value": "> 100000", "unit": "nM"}, {"measurement": "Tmax", "setting": "[4]; [13]", "value": 0.83, "unit": "h"}, {"measurement": "renal clearance", "setting": "[4]; [13]", "value": 4.55, "unit": "mL/min/kg"}, {"measurement": "t1/2", "setting": "[4]; [13]", "value": 3.34, "unit": "h"}, {"measurement": "oral bioavailability", "setting": "[4]; L-dC oral, rhesus monkey", "value": "~16", "unit": "%"}, {"measurement": "administered oral dose recovered in urine", "setting": "[4]; after 48 hours", "value": 15, "unit": "%"}, {"measurement": "share of drug excreted / recovered dose in urine, by analyte", "setting": "[4]; oral L-dC, analyte = label", "value": "~77", "unit": "%"}, {"measurement": "administered oral dose recovered in urine", "setting": "[4]; within 8 hours", "value": "Approximately 8.5%"}, {"measurement": "share of drug excreted / recovered dose in urine, by analyte", "setting": "[5]; IV dival-L-dC, analyte = label", "value": "~93", "unit": "%"}, {"measurement": "Cmax", "setting": "[5]; Intravenous (10 mg/kg Dival-L-dC), analyte = label, read-out: Cmax of each metabolite", "value": 24.6, "unit": "µM"}, {"measurement": "Cmax", "setting": "[5]; Oral (10 mg/kg dival-L-dC), analyte = label, read-out: Cmax of each metabolite", "value": 8.26, "unit": "µM"}, {"measurement": "AUC0.25→8 of L-dC", "setting": "[5]; dival-L-dC 10 mg/kg IV, monkey", "value": 19.8, "unit": "µM·h"}, {"measurement": "CL of L-dC", "setting": "[5]; dival-L-dC 10 mg/kg IV, monkey", "value": 16.8, "unit": "mL/min/kg"}, {"measurement": "Vd of L-dC", "setting": "[5]; dival-L-dC 10 mg/kg IV, monkey", "value": 2.46, "unit": "L/kg"}, {"measurement": "t1/2 of L-dC", "setting": "[5]; dival-L-dC 10 mg/kg IV, monkey", "value": 1.73, "unit": "h"}, {"measurement": "Cmax", "setting": "[5]; dival-L-dC 10 mg/kg IV, monkey, read-out: Cmax of L-dC", "value": 24.6, "unit": "µM"}, {"measurement": "AUC0.25→8 of L-dC", "setting": "[5]; [14]", "value": 14.0, "unit": "µM·h"}, {"measurement": "Tmax of L-dC", "setting": "[5]; [14]", "value": 0.67, "unit": "h"}, {"measurement": "t1/2 of L-dC", "setting": "[5]; [14]", "value": 2.28, "unit": "h"}, {"measurement": "share of plasma drug levels at Cmax", "setting": "[5]; oral dival-L-dC", "value": "> 99", "unit": "%"}, {"measurement": "share of drug excreted / recovered dose in urine, by analyte", "setting": "[5]; oral dival-L-dC, analyte = label", "value": "~95", "unit": "%"}, {"measurement": "chromosomal aberrations", "setting": "[6]", "value": "no evidence of chromosomal aberrations"}, {"measurement": "CC50", "setting": "[7]", "value": "> 100000", "unit": "nM"}, {"measurement": "CC50", "setting": "[8]", "value": "> 100000", "unit": "nM"}, {"measurement": "toxicity during four-week treatment and eight-week follow-up", "setting": "[9]", "value": "no drug-related toxicity; also recorded: no toxicity was observed"}, {"measurement": "plasma protein binding", "setting": "[10]", "value": "19.7%±5.9%"}, {"measurement": "Tlast", "setting": "[11]", "value": 24, "unit": "h"}, {"measurement": "estimated terminal phase half-lives", "setting": "[11]; 1000 mg/kg", "value": "9 to 17", "unit": "h"}, {"measurement": "estimated terminal phase half-lives", "setting": "[11]; 2000 mg/kg", "value": "6 to 8", "unit": "h"}, {"measurement": "AUClast", "setting": "[11]; po, 2000 mg/kg/day", "value": 461, "unit": "µg·h/mL"}, {"measurement": "EC90", "setting": "[12]; 10-fold reduction of HBV virion DNA levels (Table 25)", "value": "1100 ± 100", "unit": "nM"}, {"measurement": "EC50", "setting": "[12]; read-out: EC50 for reduction in extracellular HBV DNA", "value": 240, "unit": "nM"}, {"measurement": "EC50", "setting": "[12]; read-out: EC50 for reduction of intracellular HBV DNA replicative intermediates (RI)", "value": "510 nM and 500 nM"}, {"measurement": "EC90", "setting": "[12]; read-out: EC90 against HBV replication (extracellular HBV DNA)", "value": "1070 nM and 1060 nM"}]}
